Source: ChEMBL document CHEMBL1128957, “In vivo potent antifilarial -carbolines” (1996)
Active and inactive are the calls of the source. No cut-off for these calls is given here.

How the values were obtained:
Rattus norvegicus [1] = organism: Rattus norvegicus; assay: Percentage of sterilization of surviving female worm Acanthocheilonema viteae in Mastomys natalensis: Inactive; assay type: functional, organism-based
Rattus norvegicus [2] = assay: In vivo macrofilaricidal activity against Acanthocheilonema viteae in Mastomys natalensis at a dose of 50 mg/kg for 5 days administered i.p.; assay type: functional; details: route intraperitoneal
Rattus norvegicus [3] = assay: In vivo macrofilaricidal activity against Litomosoides carinii in cotton rats at a dose of 30 mg/kg for 5 days administered i.p.: Inactive; assay type: functional, organism-based; parameters: dose 30 mg/kg
Rattus norvegicus [4] = assay: In vivo microfilaricidal activity against A. viteae in Mastomys natalensis at a dose of 50 mg/kg for 5 days administered i.p.: Inactive; assay type: functional, organism-based; parameters: dose 50 mg/kg
Rattus norvegicus [5] = assay: In vivo microfilaricidal activity against Litomosoides carinii in cotton rats at a dose of 30 mg/kg for 5 days administered i.p.: Inactive; assay type: functional, organism-based; parameters: dose 30 mg/kg
Rattus norvegicus [6] = organism: Rattus norvegicus; assay: Percentage of sterilization of surviving female worm Acanthocheilonema viteae: Inactive; assay type: functional, organism-based
Rattus norvegicus [7] = assay: In vivo macrofilaricidal activity against A. viteae in Mastomys natalensis at a dose of 50 mg/kg for 5 days administered i.p.: Inactive; assay type: functional, organism-based; parameters: dose 50 mg/kg
Rattus norvegicus [8] = assay: In vivo macrofilaricidal activity against Litomosoides carinii in cotton rats at a dose of 30 mg/kg for 5 days administered i.p.; assay type: functional; details: route intraperitoneal
Rattus norvegicus [9] = assay: In vivo microfilaricidal activity against Litomosoides carinii in cotton rats at a dose of 30 mg/kg for 5 days administered i.p.; assay type: functional; details: route intraperitoneal
Rattus norvegicus [10] = assay: In vivo macrofilaricidal activity against A. viteae in Mastomys natalensis at a dose of 350 mg/kg for 5 days administered i.p.: Inactive; assay type: functional, organism-based; parameters: dose 350 mg/kg
Rattus norvegicus [11] = assay: In vivo macrofilaricidal activity against Litomosoides carinii in cotton rats at a dose of 6 mg/kg for 5 days administered i.p.: Inactive; assay type: functional, organism-based; parameters: dose 6 mg/kg
Rattus norvegicus [12] = organism: Rattus norvegicus; assay: Percentage of sterilization of surviving female worm Acanthocheilonema viteae in Mastomys natalensis; assay type: functional

Compound	Activity (Rattus norvegicus [1])	Death (Rattus norvegicus [2])	Death (Rattus norvegicus [3])	Death (Rattus norvegicus [4])	Death (Rattus norvegicus [5])	Death (Rattus norvegicus [7])	Death (Rattus norvegicus [8])	further results
NC(=O)C1NCCc2c1[nH]c1ccccc21 (stereo not given)	inactive	84%	inactive	inactive	inactive			
COC(=O)c1nccc2c1[nH]c1ccccc12			inactive		inactive	inactive		Activity (Rattus norvegicus [6]): inactive
N#Cc1[nH]ccc2c3ccccc3nc1-2	inactive	50%		inactive			78%	Death (Rattus norvegicus [9]): 59%
CCN(CC)C(=O)N1CCN(C)CC1.O=C(O)CC(O)(CC(=O)O)C(=O)O [DIETHYLCARBAMAZINE CITRATE]	inactive							Death (Rattus norvegicus [10]): inactive; Death (Rattus norvegicus [11]): inactive
NC(=O)c1nccc2c1[nH]c1ccccc12		50%	inactive		inactive			Activity (Rattus norvegicus [12]): 100
COC(=O)C1NCCc2c1[nH]c1ccccc21 (stereo not given)	inactive				inactive	inactive	81%	
